Patent US9051304B2, “Carboxamide compounds and their use as calpain inhibitors V” (AbbVie Deutschland GmbH & Co. KG, priority 2009, dated 2015)

Experiments:
Type in all cases: biochemical
[1] = molecular target: T1, calpain-I isolated from human erythrocytes (Homo sapiens, UniProt P07384); assay: Calpain I enzyme inhibition, kinetic fluorescence assay; details: apparent Ki from IC50 by Cheng-Prussoff; human erythrocyte calpain-I
T1 construct: calpain-I—isolated from human erythrocytes; purchased Calbiochem 208713; host or cells: human erythrocytes (tissue isolate)
T1 sequence (P07384 1-714): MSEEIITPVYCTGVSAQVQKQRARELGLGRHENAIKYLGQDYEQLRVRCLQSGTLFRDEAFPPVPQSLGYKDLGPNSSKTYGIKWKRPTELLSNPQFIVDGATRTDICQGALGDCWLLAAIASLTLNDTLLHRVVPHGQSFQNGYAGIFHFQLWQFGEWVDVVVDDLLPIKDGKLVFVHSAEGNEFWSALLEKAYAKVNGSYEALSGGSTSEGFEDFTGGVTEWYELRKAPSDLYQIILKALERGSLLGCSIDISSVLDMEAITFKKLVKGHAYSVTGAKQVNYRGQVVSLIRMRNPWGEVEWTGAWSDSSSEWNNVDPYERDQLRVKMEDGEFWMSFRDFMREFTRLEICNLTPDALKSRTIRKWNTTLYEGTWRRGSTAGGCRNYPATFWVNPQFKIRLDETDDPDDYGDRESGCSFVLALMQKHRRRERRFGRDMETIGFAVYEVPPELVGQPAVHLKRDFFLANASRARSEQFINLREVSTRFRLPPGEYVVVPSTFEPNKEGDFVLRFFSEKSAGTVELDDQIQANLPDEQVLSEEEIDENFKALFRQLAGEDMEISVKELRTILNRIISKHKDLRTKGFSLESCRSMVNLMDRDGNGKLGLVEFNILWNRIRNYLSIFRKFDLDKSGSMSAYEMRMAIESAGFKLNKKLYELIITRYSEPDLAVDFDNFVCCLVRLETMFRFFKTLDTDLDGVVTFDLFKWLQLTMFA
T1 sequence (P04632 1-268 partner): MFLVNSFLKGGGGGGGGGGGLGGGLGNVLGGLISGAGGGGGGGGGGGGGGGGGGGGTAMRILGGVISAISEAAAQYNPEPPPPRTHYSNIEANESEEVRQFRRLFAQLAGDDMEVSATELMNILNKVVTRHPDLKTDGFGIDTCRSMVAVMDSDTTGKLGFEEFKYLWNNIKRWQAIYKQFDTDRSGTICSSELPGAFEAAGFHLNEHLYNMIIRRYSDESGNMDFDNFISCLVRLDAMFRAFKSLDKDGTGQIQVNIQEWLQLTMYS
Method: (§1) I Enzyme Inhibition in vitro:
(§2) Testing for blockade of the corresponding enzymic activities was carried out by means of kinetic fluorescence assays (excitation 390 nm, emission 460 nm).
(§3) Apparent Ki values were calculated from the experimentally determined IC50 values by the Cheng-Prussoff relation assuming a reversible competitive enzyme inhibition.
20 nM calpain-I—isolated from human erythrocytes (Calbiochem #208713), 100 μM Suc-Leu-Tyr-AMC (Bachem #I-1355) as substrate in buffer with 62 mM imidazole, 0.3 mM CaCl2, 0.10% CHAPS, 0.05% BSA, 1 mM DTT at pH 7.3 and room temperature.

[2] = molecular target: T2, recombinant human cathepsin S (Homo sapiens, UniProt P25774); assay: Cathepsin S enzyme inhibition, kinetic fluorescence assay; details: selectivity ratio vs calpain
T2 construct: purchased Calbiochem 219343; host or cells: E. coli
Method: as §1, §2, §3
0.5 nM recombinant human cathepsin S from E. coli (Calbiochem #219343), 20 μM Z-Val-Val-Arg-AMC (Bachem #I-1540) as substrate in 50 mM MES, 2 mM EDTA, 0.05% Brij 35, 2.5 mM L-cysteine, pH 6.0, room temperature.

[3] = molecular target: T3, cathepsin K activated from recombinant human procathepsin K (Homo sapiens, UniProt P43235); assay: Cathepsin K enzyme inhibition, kinetic fluorescence assay; details: selectivity ratio vs calpain
T3 construct: purchased Calbiochem 342001; host or cells: E. coli
T3 sequence (P43235 115-329): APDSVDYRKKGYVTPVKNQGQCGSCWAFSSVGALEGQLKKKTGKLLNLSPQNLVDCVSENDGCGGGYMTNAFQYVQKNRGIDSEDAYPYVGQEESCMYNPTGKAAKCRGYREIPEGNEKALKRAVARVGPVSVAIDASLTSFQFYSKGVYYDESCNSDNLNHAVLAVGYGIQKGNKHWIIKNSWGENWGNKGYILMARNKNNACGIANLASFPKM
Method: as §1, §2, §3
3 nM cathepsin K—activated from recombinant human procathepsin K from E. coli (Calbiochem #342001), 10 μM Z-Gly-Pro-Arg-AMC (Biomol #P-142) as substrate in 50 mM MES, 2 mM EDTA, 0.05% Brij 35, 2.5 mM L-cysteine, pH 6.0, room temperature.

[4] = molecular target: T4, cathepsin L isolated from human liver (Homo sapiens, UniProt P07711); assay: Cathepsin L enzyme inhibition, kinetic fluorescence assay; details: selectivity ratio vs calpain
T4 construct: cathepsin L—isolated from human liver; purchased Calbiochem 219402; host or cells: human liver (tissue isolate)
Method: as §1, §2, §3
1 nM cathepsin L—isolated from human liver (Calbiochem #219402), 2 μM Z-Phe-Arg-AMC (Bachem #I-1160) as substrate in 50 mM MES, 2 mM EDTA, 0.05% Brij 35, 2.5 mM L-cysteine, pH 6.0, room temperature.

[5] = molecular target: T5, cathepsin B isolated from human liver (Homo sapiens, UniProt P07858); assay: Cathepsin B enzyme inhibition, kinetic fluorescence assay; details: selectivity ratio vs calpain
T5 construct: cathepsin B—isolated from human liver; purchased Calbiochem 219362; host or cells: human liver (tissue isolate)
Method: as §1, §2, §3
0.25 nM cathepsin B—isolated from human liver (Calbiochem #219362), 100 μM Z-Phe-Arg-AMC (Bachem #I-1160) as substrate 50 mM MES, 2 mM EDTA, 0.05% Brij 35, 2.5 mM L-cysteine, pH 6.0, room temperature.

T4 sequence (P07711 114-333): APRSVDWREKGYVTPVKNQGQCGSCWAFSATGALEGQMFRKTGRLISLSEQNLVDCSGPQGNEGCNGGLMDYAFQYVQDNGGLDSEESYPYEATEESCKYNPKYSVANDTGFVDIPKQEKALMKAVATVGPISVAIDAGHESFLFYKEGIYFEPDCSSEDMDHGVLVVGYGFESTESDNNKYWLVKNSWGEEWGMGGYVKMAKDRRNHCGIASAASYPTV
T2 sequence (P25774 115-331): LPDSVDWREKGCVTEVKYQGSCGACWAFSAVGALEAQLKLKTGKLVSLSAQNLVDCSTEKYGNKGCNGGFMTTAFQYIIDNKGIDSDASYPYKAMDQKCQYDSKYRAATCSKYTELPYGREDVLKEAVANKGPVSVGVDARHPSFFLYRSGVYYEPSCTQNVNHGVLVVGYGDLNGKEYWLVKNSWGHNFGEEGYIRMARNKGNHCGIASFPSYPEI

Structure (SMILES): NC(=O)C(=O)C(Cc1ccccc1)NC(=O)c1cccnc1-n1ccc(-c2ccc(F)cc2)n1 (stereo not drawn) [28 (comp.), N-(3-Amino-1-benzyl-2,3-dioxopropyl)-2-[3-(4-fluorophenyl)-1H-pyrazol-1-yl]nicotinamide, reference compound]
- Ki [1]: < 200 nM

Structure (SMILES): CONC(=O)C(=O)C(Cc1ccccc1)NC(=O)c1cccnc1-n1ccc(-c2ccc(F)cc2)n1 (stereo not drawn) [Example 1, 2-[3-(4-Fluorophenyl)-1H-pyrazol-1-yl]-N-[4-(methoxyamino)-3,4-dioxo-1-phenylbutan-2-yl]pyridine-3-carboxamide]
- Ki [1]: 200 to 300 nM

Structure (SMILES): CONC(=O)C(=O)C(Cc1ccccc1)NC(=O)c1cccnc1-n1ccc(-c2ccccc2)n1 (stereo not drawn) [Example 2, N-(4-(Methoxyamino)-3,4-dioxo-1-phenylbutan-2-yl)-2-(3-phenyl-1H-pyrazol-1-yl)nicotinamide]
- Ki [1]: < 200 nM

Structure (SMILES): CONC(=O)C(=O)C(Cc1ccccc1)NC(=O)c1cccnc1-n1cc(F)c(-c2ccccc2)n1 (stereo not drawn) [Example 3, 2-(4-Fluoro-3-phenyl-1H-pyrazol-1-yl)-N-(4-(methoxyamino)-3,4-dioxo-1-phenylbutan-2-yl)nicotinamide]
- Ki [1]: < 200 nM

Structure (SMILES): CONC(=O)C(=O)C(Cc1ccccc1)NC(=O)c1cccnc1-n1cc(C)c(-c2ccccc2)n1 (stereo not drawn) [Example 4, N-[4-(Methoxyamino)-3,4-dioxo-1-phenylbutan-2-yl]-2-(4-methyl-3-phenyl-1H-pyrazol-1-yl)pyridine-3-carboxamide]
- Ki [1]: 300 to 600 nM

Structure (SMILES): CONC(=O)C(=O)C(Cc1ccc(F)cc1)NC(=O)c1cccnc1-n1ccc(-c2ccccc2)n1 (stereo not drawn) [Example 5, N-(1-(4-Fluorophenyl)-4-(methoxyamino)-3,4-dioxo-butan-2-yl)-2-(3-phenyl-1H-pyrazol-1-yl)nicotinamide]
- Ki [1]: 300 to 600 nM

Structure (SMILES): CONC(=O)C(=O)C(Cc1cccc(F)c1)NC(=O)c1cccnc1-n1ccc(-c2ccccc2)n1 (stereo not drawn) [Example 6, N-(1-(3-Fluorophenyl)-4-(methoxyamino)-3,4-dioxobutan-2-yl)-2-(3-phenyl-1H-pyrazol-1-yl)nicotinamide]
- Ki [1]: 200 to 300 nM

Structure (SMILES): C=CCONC(=O)C(=O)C(Cc1ccccc1)NC(=O)c1cccnc1-n1ccc(-c2ccccc2)n1 (stereo not drawn) [Example 8, N-(4-(Allyloxyamino)-3,4-dioxo-1-phenylbutan-2-yl)-2-(3-phenyl-1H-pyrazol-1-yl)nicotinamide]
- Ki [1]: < 200 nM

Structure (SMILES): CONC(=O)C(=O)C(Cc1ccccc1)NC(=O)c1cccnc1-n1cc(Cl)c(-c2ccccc2)n1 (stereo not drawn) [Example 10, 2-(4-Chloro-3-phenyl-1H-pyrazol-1-yl)-N-(4-(methoxyamino)-3,4-dioxo-1-phenylbutan-2-yl)nicotinamide]
- Ki [1]: 300 to 600 nM
- Sel cat. S (Ki(cathepsin S)/Ki(calpain) ratio) [2]: ++ (++ means 10<Ki(cathepsin S)/Ki(calpain)≦50)
- Sel cat. K (Ki(cathepsin K)/Ki(calpain) ratio) [3]: + (+ means 2≦Ki(cathepsin K)/Ki(calpain)≦4)
- Sel cat. L (Ki(cathepsin L)/Ki(calpain) ratio) [4]: ++ (++ means 10<Ki(cathepsin L)/Ki(calpain)≦50)
- Sel cat. B (Ki(cathepsin B)/Ki(calpain) ratio) [5]: ∘

Structure (SMILES): CC(C)ONC(=O)C(=O)C(Cc1ccccc1)NC(=O)c1cccnc1-n1ccc(-c2ccccc2)n1 (stereo not drawn) [Example 11, N-[4-(Isopropoxyamino)-3,4-dioxo-1-phenyl-2-butanyl]-2-(3-phenyl-1H-pyrazol-1-yl)nicotinamide]
- Ki [1]: < 200 nM

Structure (SMILES): CCCONC(=O)C(=O)C(Cc1ccccc1)NC(=O)c1cccnc1-n1ccc(-c2ccccc2)n1 (stereo not drawn) [Example 12, N-[3,4-Dioxo-1-phenyl-4-(propoxyamino)-2-butanyl]-2-(3-phenyl-1H-pyrazol-1-yl)nicotinamide]
- Ki [1]: < 200 nM

Structure (SMILES): CONC(=O)C(=O)C(Cc1ccccc1)NC(=O)c1cccnc1-n1ccc(-c2ccc(N3CCOCC3)cc2)n1 (stereo not drawn) [Example 13, N-[4-(Methoxyamino)-3,4-dioxo-1-phenyl-2-butanyl]-2-{3-[4-(4-morpholinyl)phenyl]-1H-pyrazol-1-yl}nicotinamide]
- Ki [1]: 300 to 600 nM
- Sel cat. S (Ki(cathepsin S)/Ki(calpain) ratio) [2]: ++ (++ means 10<Ki(cathepsin S)/Ki(calpain)≦50)
- Sel cat. K (Ki(cathepsin K)/Ki(calpain) ratio) [3]: + (+ means 2≦Ki(cathepsin K)/Ki(calpain)≦4)
- Sel cat. L (Ki(cathepsin L)/Ki(calpain) ratio) [4]: ++ (++ means 10<Ki(cathepsin L)/Ki(calpain)≦50)
- Sel cat. B (Ki(cathepsin B)/Ki(calpain) ratio) [5]: ∘

Structure (SMILES): O=C(NOC1CCCC1)C(=O)C(Cc1ccccc1)NC(=O)c1cccnc1-n1ccc(-c2ccccc2)n1 (stereo not drawn) [Example 17, N-{4-[(Cyclopentyloxy)amino]-3,4-dioxo-1-phenyl-2-butanyl}-2-(3-phenyl-1H-pyrazol-1-yl)nicotinamide]
- Ki [1]: 200 to 300 nM

Structure (SMILES): CCONC(=O)C(=O)C(Cc1ccc(F)cc1)NC(=O)c1cccnc1-n1ccc(-c2ccccc2)n1 (stereo not drawn) [Example 18, N-[4-(Ethoxyamino)-1-(4-fluorophenyl)-3,4-dioxo-2-butanyl]-2-(3-phenyl-1H-pyrazol-1-yl)nicotinamide]
- Ki [1]: < 200 nM

Structure (SMILES): CCONC(=O)C(=O)C(Cc1ccccc1)NC(=O)c1cccnc1-n1cc(F)c(-c2ccccc2)n1 (stereo not drawn) [Example 19, N-[4-(Ethoxyamino)-3,4-dioxo-1-phenyl-2-butanyl]-2-(4-fluoro-3-phenyl-1H-pyrazol-1-yl)nicotinamide]
- Ki [1]: < 200 nM

Structure (SMILES): O=C(NOC1CCC1)C(=O)C(Cc1ccccc1)NC(=O)c1cccnc1-n1ccc(-c2ccccc2)n1 (stereo not drawn) [Example 20, N-{4-[(Cyclobutyloxy)amino]-3,4-dioxo-1-phenyl-2-butanyl}-2-(3-phenyl-1H-pyrazol-1-yl)nicotinamide]
- Ki [1]: < 200 nM

Structure (SMILES): O=C(NOCCN1CCOCC1)C(=O)C(Cc1ccccc1)NC(=O)c1cccnc1-n1ccc(-c2ccccc2)n1 (stereo not drawn) [Example 22, N-(4-{[2-(4-Morpholinyl)ethoxy]amino}-3,4-dioxo-1-phenyl-2-butanyl)-2-(3-phenyl-1H-pyrazol-1-yl)nicotinamide]
- Ki [1]: 200 to 300 nM

Structure (SMILES): O=C(NOCC1CC1)C(=O)C(Cc1ccccc1)NC(=O)c1cccnc1-n1ccc(-c2ccccc2)n1 (stereo not drawn) [Example 23, N-{4-[(Cyclopropylmethoxy)amino]-3,4-dioxo-1-phenyl-2-butanyl}-2-(3-phenyl-1H-pyrazol-1-yl)nicotinamide]
- Ki [1]: < 200 nM

Structure (SMILES): CONC(=O)C(=O)C(Cc1ccccc1)NC(=O)c1cccnc1-n1ccc(-c2ccccc2F)n1 (stereo not drawn) [Example 25, 2-[3-(2-Fluorophenyl)-1H-pyrazol-1-yl]-N-[4-(methoxyamino)-3,4-dioxo-1-phenyl-2-butanyl]nicotinamide]
- Ki [1]: < 200 nM
